Eleven molecules from patent publication US20230366023A1, “METHODS AND COMPOSITIONS FOR BIOLUMINESCENCE-BASED SEQUENCING” (BGI Shenzhen Co., Ltd., priority 2020, published 2023) can be followed below.

“Also recorded” adds a separate entry of the source.

The nature of one data set: Solubility of substrates. It counts as physicochemical. How it is done:
An optimal organic solvent as substrate stock buffer was needed to obtain good solubility and good stability. Different organic solvents and mixes were tested, such as ethanol, propylene glycol, methonal, DMSO, and mixes of these solvents at different ratios.

Data set [1] can be described thus: Long-term shelf life of substrates in reaction buffer (FIG. 6). It is filed as physicochemical. The settings on record: 300 uM in reaction buffer, −20° C. The procedure: Long-term shelf life (long-term stability) was also evaluated for the substrate reaction buffer formulation. 300 uM substrate was diluted in the reaction buffer and stored at −20° C. One aliquot was thaw and tested against the fresh luciferase. Data at each time point was the relative signal intensity ratio compared to a fresh luciferase/substrate pair.

Data set [2] is described as follows: On-board stability of substrates in reaction buffer (FIG. 5). The settings on record: room temperature 24 hours in reaction buffer, compared with fresh condition. It is filed as physicochemical. How it is done:
The term “on-board stability” refers to the stability of […] in reaction buffer under the room temperature for 24 hours.
To develop the substrate reaction buffer into a robust reagent kit for the bioluminescence-based sequencing platform, both on-board stability and long term shelf life have been evaluated. […] We evaluated the room temperature stability for 24 hours (referred as on-board stability) for both CTZ and f-CTZ in the reaction buffer formulation listed above.

A further data set addresses T1, Nluc mutant (Oplophorus gracilirostris, UniProt Q9GV45, A31E/A60N/A81I/F95D/I117V/K70R/L54V/L99Q/M102K/N193R/P142E/Q151K/Q38R/Q45L/V71I/Y165I).
T1 construct: purchased Prolume Inc
Kind of data set: Screening of CTZ analogs as substrate (FIG. 4). It is filed as biochemical. Conditions: with Nluc mutant.

For data set [3], the target named is T2, Nluc (Oplophorus gracilirostris, UniProt Q9GV45, A31E/A60N/A81I/F95D/I117V/K70R/L54V/L99Q/M102K/N193R/P142E/Q151K/Q38R/Q45L/V71I/Y165I).
T2 construct: purchased Prolume Inc
Kind of data set: Selective deactivation by DTT (FIG. 18A). It is filed as biochemical. The text has this: (§1) Selective deactivation agents that are suitable for the invention include, but not limited to, Dithiothreitol (DTT), beta-mercaptoethylamine, tris-carboxyethylphosphine (TCEP). The suitable concentrations of the agent (e.g., DTT) for selectively deactivating the first luciferease may range from 0.001M to 2M, e.g., from 0.01M to 0.5M, from 0.05M to 1M, 0.07M to 0.5M, or about 0.1M.

The subject of data set [4] is Gluc. Kind of data set: Selective deactivation by DTT (FIG. 18B). It counts as biochemical, Gaussia princeps. The procedure: as §1
In each cycle a mixture of NLRTs were incubated with the DNA template to be sequenced in the presence of a DNA polymerase. These NLRTs include 7-deaza-7-biotin-linker-3′-azidomethyl-dATP, 5-biotin-linker-3′-azidomethyl-dTTP, 5-digoxin-linker-3′-azidomethyl-dTTP, 5-digoxin-linker-3′-azidomethyl-dCTP, and 3′-azidomethyl-dGTP. Streptavidin-conjugated Gluc (recognizing biotin-labeled nucleotides A and T) was added to the sequencing flow cell followed by adding substrate CTZ. Bioluminesnce signals from the cleavage of CTZ by the Gluc was collected. […] Subsequently, Nluc-conjugated anti-Digoxin antibody was added to the flow cell to bind the Digoxin-labeled nucleotides (T and C). No signals for G were detected as expected.

Data set [5] concerns Gluc. Kind of data set: Signal and thermostability after Traut's modification (FIG. 11C, 11D). It counts as biochemical, Gaussia princeps. The procedure:
(§2) Other conjugation methods were also attempted to avoid the side reactions from SMCC. […] After purification of each reaction, the luciferase after Traut's treatment and the antibody after SMCC treatment were mixed together to react through the —SH group on the luciferase and maleimide on the SMCC group on antibody.
Beside signal evaluation, stability study had also been investigated. […] For Nluc, Traut's modification (1:1 ratio) helps to improve stability and signal for about 30% at 50° C.

For data set [6], the target named is T2, Nluc. The description is as above. It is filed as biochemical.
Excerpt: as §2
Beside signal evaluation, stability study had also been investigated. […]

Data set [7] concerns Gluc. Kind of data set: Luciferase signal after incubation with SMCC linker or iodoacetamide (FIG. 10B). It counts as biochemical, Gaussia princeps. The procedure:
(§3) We investigated the detailed luciferase structures to find the reason for the signal drop. […] To confirm this hypothesis, lodoacetamide was used to incubate with both Gluc and Nluc. Lodoacetamide can bind covalently to the thiol group of cysteine so the protein cannot form disulfide bonds, as illustrated in FIG. 10A. […] This was the reason why there is signal loss after incubating the SMCC with Nluc/Gluc which leads to low signal intensity for the final antibody conjugates.

The target in data set [8] is T2, Nluc. The data set is described as above. The settings on record: Nluc:iodoacetamide 1:10 ratio at RT for 30 min. It is filed as biochemical. The procedure:
as §3

For data set [9] the following is noted: relative; each luciferase with the substrate listed in Table 1. The source says: Preferably the luciferase is relatively small (e.g., less than 30 KDa) so that they can be readily engineered, e.g., be coupled to or fused to an affinity reagent disclosed herein. […] Other non-limiting examples of luciferases that can be used include Nanoluc (Promega) and NanoKaz (NanoLight Technology), which also comprise a sequence of SEQ ID NO: 2.

The nature of data set [10]: Stability of luciferases in cells (Table 1). It counts as cell-based.
Data set [11] in a line: Cross-substrate reactivity of Nluc with the Gluc substrate (FIG. 3). It is filed as biochemical.
Protocol: In some embodiments, the luciferase is incubated with the substrate for a sufficient amount of time to allow the development of the signal before detection. The step of signal development may last between 5 to 30 minutes, for example, about 10 minutes.
Data set [12] is described as follows: Side-by-side signal intensity comparison of commercial luciferases (FIG. 2). It is filed as biochemical. Conditions: integrated signal intensity from the first 10 sec. The text has this:
However, it was still multiple fold intensity higher than the rest of the counterparts. […] The integrated signal intensity from the first 10 sec was obtained from each luciferase/substrate pair to have the comparison.

`Oc1ccc(Cc2nc3c(Cc4ccccc4)nc(-c4ccc(O)cc4)cn3c2O)cc1` [CTZ, coeleterazine]: in the data set “Solubility of substrates”, the water solubility entry is “not water-soluble”. Also, in data set [1] (Gluc/CTZ, 6 months), the “long-term stability (relative signal intensity versus fresh luciferase/substrate pair)” value was “no significant signal drop”. In addition, the on-board stability result in [2] is listed as “no significant difference; also recorded: not significantly different”.

Regarding `O=c1c(Cc2ccc(F)cc2)nc2c(Cc3ccccc3)[nH]c(-c3ccc(O)cc3)cn1-2` [f-CTZ, fluorinated coeleterazine], on Nluc mutant, the “signal intensity among the different CTZ analog structures” value was “optimal substrate; also recorded: highest signal intensity”. The water solubility entry in “Solubility of substrates” is on record as “not water-soluble”. For the same molecule, in data set [1] (Nluc/f-CTZ, 4 months), the “long-term stability (relative signal intensity versus fresh luciferase/substrate pair)” value was “no significant signal drop”. Also, the on-board stability result in data set [2] is on record as “no significant difference; also recorded: not significantly different”.

For the molecule `O[C@H](CS)[C@H](O)CS` (racemic) [DTT, Dithiothreitol], the “signal change after DTT treatment” value on Nluc [3] was “did not impair the activity; also recorded: no significant changes”. For the same molecule, the “deactivation in sequencing flow cell” value with Gluc [4] (100 mM DTT) is “deactivated Gluc”. Besides, the “signal reduction after DTT treatment” value in the data set with Gluc [4] (Gluc) was “more than 95%”.

As for `N=C1CCCS1` [Traut's reagent, 2-iminothiolane], in the data set with Gluc [5] (1:1 molar ratio gives the highest signal), the “signal increase after Traut's modification” value is listed as 60%. Besides, the “thermostability after Traut's modification” value in the data set with Gluc [5] (50° C. or 70° C. for 1 hour) is “worse stability”; at Nluc [6] (Nluc modified or unmodified, 70° C. for 1 hour), “cannot survive 70 °C”. Further, the “signal increase after Traut's modification (in words)” value at Nluc [6] (Nluc, 1:1 molar ratio gives the highest signal) is “doubled”.

`O=C(ON1C(=O)CCC1=O)C1CCC(CN2C(=O)C=CC2=O)CC1` (stereo not shown) [SMCC]: in the data set on Gluc [7] (Gluc), the “signal drop after incubating with SMCC linker” value is 15%-30%.

As for `NC(=O)CI` [lodoacetamide, Iodoacetamide], the “signal lost after reacting with iodoacetamide” value on Nluc [8] is “lost all signal”; with Gluc [7] (Gluc:iodoacetamide 1:10 ratio at RT for 30 min, fraction of signal), 2/3.

“firefly: firefly luciferase, substrate D-Luciferin”: the Signal intensity in data set [9] is reported as 1. In [10], this molecule displayed a Stability in cells of 0.00694 days.

B1: Nluc: NanoZac luciferase polypeptide (SEQ ID NO: 2), Prolume Inc. (protein)
chain: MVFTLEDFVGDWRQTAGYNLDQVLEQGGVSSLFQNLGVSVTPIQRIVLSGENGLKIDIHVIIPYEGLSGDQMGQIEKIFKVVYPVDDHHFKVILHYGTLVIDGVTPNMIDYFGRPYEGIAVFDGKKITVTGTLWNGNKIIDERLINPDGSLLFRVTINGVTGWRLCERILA
Regarding B1, the “background signal when reacting with the Gluc substrate” value in [11] (Nluc with CTZ) is recorded as “about 10%”. Moreover, in data set [11] (in words, FIG. 3), the cross-substrate reactivity entry is reported as “no significant cross-substrate reactivity”. Further, the “signal compared to the Gluc mutant” value in data set [12] is recorded as “half”.

B2: NanoKaz: NanoKaz luciferase (NanoLight Technology), substrate Coelenterazine-F (protein)
chain: B1 chain
B2 returned a Signal intensity in data set [9] of 150. Further, the Stability in cells in data set [10] was 7.7 days.

B3: Nanoluc: Nanoluc luciferase (Promega), substrate Furimazine (protein)
chain: B1 chain
For B3, the Signal intensity in data set [9] is listed as 80. The molecule also came in with a Stability in cells in [10] of 7.7 days.

B4: Gaussia: Gaussia luciferase (GLuc), substrate Coelenterazine (protein)
chain: MKPTENNEDFNIVAVASNFATTDLDADRGKLPGKKLPLEVLKELEANARKAGCTRGCLICLSHIKCTPKMKKFIPGRCHTYEGDKESAQGGIGEAIVDIPEIPGFKDLEPLEQFIAQVDLCVDCTTGCLKGLANVQCSDLLKKWLPQRCATFASKIQGQVDKIKGAGGDHHHHHH
Regarding B4, the Signal intensity in data set [9] was 160. In data set [10], this molecule gave a Stability in cells of 10.5 days.
